The results in this text go back to US9464106B2, “Oligonucleotides useful for detecting and analyzing nucleic acids of interest” (Exiqon A/S, priority 2002, dated 2016).

l = locked nucleic acid (LNA); [5mC] = 5-methylcytosine; d = 2'-deoxy (DNA)

For this data set, the system named is yeast HSP78 (YDR258C) sequence. Briefly: Duplex melting temperatures of HSP78 25-mer capture probes (UV spectrophotometer). Particulars: 25-mer capture probe duplex with complementary target; design PM = perfectly matched, MM = single mismatch; DNA, LNA_T (T) or LNA_TC (TC) substituted.
“12729 (DNA CAATGATCGTGTTACGGAAATCAAC; sugars from the 5' end lddlddlldlddddldddddllddd, [5mC] at 1, 8, 15, 22, backbone not given here; further chemistry not fully specified) [compound 12729]”: the “Average duplex melting temp.” value came out at 75.5 °C.

Take “12730 (DNA TGGCCTAGGGAAACGGTCAGCTTAC; sugars from the 5' end lddldlddddddddddldddldldd, [5mC] at 4, 21, backbone not given here) [compound 12730]”: the “Average duplex melting temp.” value was found to be 75.5 °C.

On to “12731 (DNA TTGGAAACATCGCGGTGCGCTTTTT; sugars from the 5' end lldddddlddlddddldldddldld, [5mC] at 8, 11, 18, backbone not given here) [compound 12731]”, for which the “Average duplex melting temp.” value came out at 72 °C.

Take “12732 (DNA GAAACATCGGGGAGCGCTTTTTCAA; sugars from the 5' end ddddldllddddddldddddldldd, [5mC] at 5, 8, 15, 23, backbone not given here) [compound 12732]”: the “Average duplex melting temp.” value came out at 74.8 °C.

For “12733 (DNA GACAGCCTCAGTAAATTGGCCACCA; sugars from the 5' end ddlddldldddddddlldddlddld, [5mC] at 3, 6, 21, 24, backbone not given here) [compound 12733]”, the “Average duplex melting temp.” value is 77.4 °C.

“12734 (DNA CCGATTAAACGACAGACAGTATGCT; sugars from the 5' end llddlldddlddddddlddldldld, [5mC] at 1, 2, 10, 17, 24, backbone not given here) [compound 12734]”: the “Average duplex melting temp.” value is 70.2 °C.

With “12735 (DNA ATCAAATAGGAAATCAGCTAAAGCC; sugars from the 5' end dlldddldddddddlddllddddld, [5mC] at 3, 15, 18, 24, backbone not given here) [compound 12735]”, the “Average duplex melting temp.” value came to 64.6 °C.

With “12736 (DNA GACCTAAGAACAAAAAGCTGGCAAT; sugars from the 5' end ddllldddddlddddddllddlddd, all C 5-methyl, backbone not given here) [compound 12736]”, the “Average duplex melting temp.” value was determined as 71.4 °C.

With “12737 (DNA AAATAGCAGCAAAGGCCTCGTCTTG; sugars from the 5' end dddlddlddldddddldlldlddld, [5mC] at 7, 10, 16, 19, backbone not given here) [compound 12737]”, the “Average duplex melting temp.” value stood at 79.3 °C.

Regarding “12738 (DNA ATAGCAGCAATGCCCTCGTCTTGGC; sugars from the 5' end dlddldddddlddddldddldlddd, [5mC] at 5, 20, backbone not given here) [compound 12738]”, the “Average duplex melting temp.” value was 71.5 °C.

For “12739 (DNA GCAATGGCCTCGACTTGGCCAACGA; sugars from the 5' end d10 l1 d2 l1 d11, [5mC] at 11, 14, backbone not given here) [compound 12739]”, the “Average duplex melting temp.” value was found to be 73.1 °C.

Consider “12740 (DNA GATGAACTCAGGAGGATAGGATCTT; sugars from the 5' end ddldddllldddddddlddddllld, all C 5-methyl, backbone not given here) [compound 12740]”, for which the “Average duplex melting temp.” value turned out to be 70.4 °C.

On to “12741 (DNA TCAGTTAGCCAAACCTTCGCTTCAT; sugars from the 5' end dlddlddddlddddddlddlddldd, [5mC] at 2, 10, 20, 23, backbone not given here) [compound 12741]”, for which the “Average duplex melting temp.” value was found to be 70.6 °C.

For the substance “12742 (DNA GTTGCCATGGAGATCAAAATCTGTC; sugars from the 5' end dlddlldlddddddlddddllddld, [5mC] at 5, 6, 15, 21, backbone not given here) [compound 12742]”, the “Average duplex melting temp.” value amounted to 61.6 °C.
